Columns and labels:
S. pneumoniae TIGR4 = test: Bacterial killing assay (CFU/mL reduction after 6 h); format: cell-based, Streptococcus pneumoniae; details: for Δlog CFU reduction in S. pneumoniae strains: TIGR4: log CFU reduction CPP-antisense PNA – log CFU reduction CPP-scPNA; for Reduction of bacterial CFU/mL compared to untreated control (in words): concentration range 2.5 to 20 μM, n = 5
Procedure: The impact of different CPPs on the efficacy of antisense PNAs targeting gyrA and rpoB in S. pneumoniae was tested using an in vitro killing assay ([25]). S. pneumoniae strains were incubated for 6 h with CPP-antisense PNA conjugates. We determined the reduction of bacterial CFU/mL caused by different CPP-coupled antisense PNA constructs compared to an untreated control. Three different CPPs were tested: HIV-1 TAT (TAT), oligolysin (K8), and (RXR)4XB (Table 1). Concentration-dependent bactericidal activity was investigated by treatment of S. pneumoniae TIGR4 in a CPP-antisense PNA conjugate concentration range of 2.5 to 20 μM (Fig. 1).
(§1) After culturing S. pneumoniae strains in BHI, D39 and 19F were diluted to approximately 10^5 CFU/mL in phosphate-buffered saline (PBS):BHI (93%:7%), while TIGR4 was diluted to approximately 10^5 CFU/mL in PBS:BHI (96%:4%). Next, 450-μL volumes of the respective bacterial suspensions, containing approximately 0.5× 10^5 CFU, were transferred to 2-mL reaction tubes. A 50-μL volume of PNA solution was added to a final PNA concentration of 1 to 20 μM or as indicated. Fifty μL H2O served as a mock control. The reaction tubes were incubated for 6 h at 37°C and 7 rpm (Rotor SB3; Stuart, Staffordshire, United Kingdom). The concentration of CPP-PNA that reduced CFU/mL by 50% after 6 h of incubation compared to an untreated control (IC50) was calculated by nonlinear regression analysis using GraphPad Prism software (GraphPad Software, San Diego, CA).

S. pneumoniae strain D39 = test: as above; format: cell-based, Streptococcus pneumoniae; details: log CFU reduction CPP-antisense PNA – log CFU reduction CPP-scPNA
Procedure: Similar results were obtained with S. pneumoniae strain D39 (Fig. S1). (RXR)4XB-coupled antisense PNAs were more efficient than TAT-coupled antisense PNAs. […] The difference between the target genes anti-gyrA and anti-rpoB was less pronounced in D39 than in TIGR4 (Table 2).
as §1

S. pneumoniae strain 19F = test: as above; format: cell-based, Streptococcus pneumoniae; details: log CFU reduction CPP-antisense PNA – log CFU reduction CPP-scPNA
Procedure: Compared to S. pneumoniae strains TIGR4 and D39, strain 19F was clearly affected by incubation with CPP-coupled scPNAs (Fig. S2). Specific antimicrobial activity of TAT-antisense PNAs was low, regardless of the target gene (Fig. S2, Table 2).
as §1

[1] = tested on: G. mellonella larvae infected with S. pneumoniae TIGR4; test: G. mellonella infection model, larval survival; format: in vivo, Galleria mellonella; details: 10 nmol CPP-PNA/larva; for Effect on survival of infected larvae (in words): data not shown
Procedure: Antimicrobial efficiency of CPP-antisense PNA conjugates was evaluated in vivo employing a G. mellonella infection and treatment model ([22], [28]). Larvae were infected with S. pneumoniae strain TIGR4 and subsequently treated with 10 nmol CPP-anti-gyrA PNAs. Treatment with levofloxacin served as a positive control. Larval survival was observed over 7 days.
Larvae of the greater wax moth (G. mellonella) were obtained from Bugs-International GmbH (Irsingen/Unterfeld, Germany). For infection experiments, S. pneumoniae TIGR4 was grown for 7 h in BHI, washed twice in a 0.9% NaCl solution, and suspended in 0.9% NaCl to a final concentration of approximately 1 × 10^8 CFU/mL. Larvae weighing 150 to 200 mg were infected with 1 × 10^6 to 3 × 10^6 CFU/larva. Bacteria were injected into the hemocoel of the larvae between the last two pairs of prolegs using a microapplicator (World Precision Instruments, LLC, Sarasota, FL) and a fine-dosage syringe (Omnican-F, 0.01 to 1 mL, 0.30 × 12 mm; B. Braun AG, Melsungen, Germany). As mock control, 0.9% NaCl (PNA experiment) or 0.9% NaCl/3% DMSO (levofloxacin experiment) was injected. For CPP-PNA treatment, larvae were injected 30 min postinfection with 10 nmol CPP-PNA/larva. For levofloxacin treatment, larvae were injected 30 min postinfection with 1 or 10 μg levofloxacin/larva. Larvae were incubated for 7 days, and survival was monitored daily ([22]).

Substance | Δlog CFU reduction in S. pneumoniae strains: TIGR4 (S. pneumoniae TIGR4; CPNA 2.5 μM, 6 h) | Δlog CFU reduction in S. pneumoniae strains: TIGR4 (S. pneumoniae TIGR4; CPNA 5 μM, 6 h) | Δlog CFU reduction in S. pneumoniae strains: TIGR4 (S. pneumoniae TIGR4; CPNA 10 μM, 6 h) | Δlog CFU reduction in S. pneumoniae strains: TIGR4 (S. pneumoniae TIGR4; CPNA 20 μM, 6 h) | Reduction of bacterial CFU/mL compared to untreated control (in words) (S. pneumoniae TIGR4; TIGR4, 6 h) | Δlog CFU reduction in S. pneumoniae strains: D39 (S. pneumoniae strain D39; CPNA 2.5 μM) | Δlog CFU reduction in S. pneumoniae strains: D39 (S. pneumoniae strain D39; CPNA 5 μM) | Δlog CFU reduction in S. pneumoniae strains: D39 (S. pneumoniae strain D39; CPNA 10 μM) | Δlog CFU reduction in S. pneumoniae strains: D39 (S. pneumoniae strain D39; CPNA 20 μM) | Δlog CFU reduction in S. pneumoniae strains: 19F (S. pneumoniae strain 19F; CPNA 2.5 μM) | Δlog CFU reduction in S. pneumoniae strains: 19F (S. pneumoniae strain 19F; CPNA 5 μM) | Δlog CFU reduction in S. pneumoniae strains: 19F (S. pneumoniae strain 19F; CPNA 10 μM) | Δlog CFU reduction in S. pneumoniae strains: 19F (S. pneumoniae strain 19F; CPNA 20 μM) | Effect on survival of infected larvae (in words) [1] | Δlog CFU reduction in S. pneumoniae strains: TIGR4 (S. pneumoniae TIGR4; CPNA 10 μM, 6 h, listed as (RXR)4XB-anti-gyrA) | log CFU reduction (S. pneumoniae TIGR4; TIGR4, 6 h, 20 μM CPP-PNA) | IC50 (S. pneumoniae TIGR4; TIGR4, 6 h incubation vs untreated control, nonlinear regression, read-out: 50% inhibitory concentration (IC50): concentration that reduced CFU/mL by 50%) | Δlog CFU reduction in S. pneumoniae strains: 19F (S. pneumoniae strain 19F; CPNA 10 μM, listed as (RXR)4XB-anti-gyrA) | Increase of survival rate ([1]; 30 min postinfection, 7 days, n = 60) | Δlog CFU reduction in S. pneumoniae strains: TIGR4 (S. pneumoniae TIGR4; CPNA 20 μM, 6 h, listed as (RXR)4XB-anti-rpoB)
GRKKRRQRRRYK-eg-ctgccaagatga [TAT-anti-rpoB PNA, HIV-1 TAT (48–57) peptide coupled to antisense PNA against S. pneumoniae rpoB] | 0 | 0 | 0 | 0 | No reduction of bacterial counts | 0 | 0.11 | 0.16 | 0.51 | 0.05 | 0.05 | 0 | 0 | did not increase survival |  |  |  |  |  | 
RXRRXRRXRRXRXB-eg-tgcattaata [(RXR)4XB-anti-gyrA PNA, (RXR)4XB peptide coupled to antisense PNA against gyrA] | 0 | 0.98 | ≥ 1 | 3.18 | significant decreases | 0 | 0 | 0.42 | 2.23 | 0.72 | 1.20 | ≥ 1 | 1.48 |  | 1.80 | 4 | 630 nM | 1.21 | 22% | 
RXRRXRRXRRXRXB-eg-ctgccaagatga [(RXR)4XB-anti-rpoB PNA, (RXR)4XB peptide coupled to antisense PNA against rpoB] | 0 | 0.40 | 0.66 | ≥ 1 | significant decreases | 0 | 0.16 | 0.61 | 1.98 | 0.18 | 0.17 | 0.16 | 0.56 | did not increase survival |  |  |  |  |  | 1.58

Source: paper PMC9784828, “Antimicrobial Activity of Peptide-Coupled Antisense Peptide Nucleic Acids in Streptococcus pneumoniae” (Microbiology Spectrum, 2022)
